# ChEMBL document CHEMBL1201862, “PubChem BioAssay data set” (2004)
#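 Results reflect a 48-hour exposure of cells in 96-well plates to compound at five concentrations. At the GI50, growth is halved.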 The source made the active and inactive calls. Rule as the data show it: active = GI50 up to about 1.1 µM and inactive = higher.
# Columns and labels:
# Assay in all cases: NCI tumour cell line growth inhibition, 48 h
# 786-0 = system: 786-0
# A498 = system: A498
# A549 = system: A549
# ACHN = system: ACHN
# BT-549 = system: BT-549
# CAKI-1 = system: CAKI-1
# CCRF-CEM = system: CCRF-CEM
# COLO 205 = system: COLO 205
# DU-145 = system: DU-145
# HCT-116 = system: HCT-116
# HCT-15 = system: HCT-15
# HL-60 = system: HL-60
# HOP-62 = system: HOP-62
# HOP-92 = system: HOP-92
# HT-29 = system: HT-29
# IGROV-1 = system: IGROV-1
# K562 = system: K562
# KM12 = system: KM12
# LOX IMVI = system: LOX IMVI
# M14 = system: M14
# MCF7 = system: MCF7
# MDA-MB-231 = system: MDA-MB-231
# MDA-MB-435 = system: MDA-MB-435
# MDA-N = system: MDA-N
# MOLT-4 = system: MOLT-4
# Malme-3M = system: Malme-3M
# NCI-H226 = system: NCI-H226
# NCI-H23 = system: NCI-H23
# NCI-H460 = system: NCI-H460
# NCI-H522 = system: NCI-H522
# NCI/ADR-RES = system: NCI/ADR-RES
# OVCAR-3 = system: OVCAR-3
# OVCAR-4 = system: OVCAR-4
# OVCAR-5 = system: OVCAR-5
# OVCAR-8 = system: OVCAR-8
# PC-3 = system: PC-3
# RXF 393 = system: RXF 393
# SF-268 = system: SF-268
# SF-295 = system: SF-295
# SF-539 = system: SF-539
# SK-MEL-28 = system: SK-MEL-28
# SK-MEL-2 = system: SK-MEL-2
# SK-MEL-5 = system: SK-MEL-5
# SK-OV-3 = system: SK-OV-3
# SN12C = system: SN12C
# SNB-19 = system: SNB-19
# SNB-75 = system: SNB-75
# SR = system: SR
# SW-620 = system: SW-620
# T47D = system: T47D
# TK-10 = system: TK-10
# U-251 = system: U-251
# UACC-257 = system: UACC-257
# UACC-62 = system: UACC-62
# UO-31 = system: UO-31
# EKVX = system: EKVX
# HCC 2998 = system: HCC 2998
# Hs-578T = system: Hs-578T
# RPMI-8226 = system: RPMI-8226
smiles,measurement,setting,value
COc1cc(S(=O)(=O)Nc2nc(-c3ccc(N4C(=O)/C(=C/c5ccccc5[N+](=O)[O-])N=C4c4ccccc4)cc3)cs2)ccc1Cl,GI50,786-0,> 100 µM (inactive)
same,GI50,A498,> 100 µM (inactive)
same,GI50,A549,> 100 µM (inactive)
same,GI50,ACHN,> 100 µM (inactive)
same,GI50,BT-549,20 µM (inactive)
same,GI50,CAKI-1,> 100 µM (inactive)
same,GI50,CCRF-CEM,> 100 µM (inactive)
same,GI50,COLO 205,> 100 µM (inactive)
same,GI50,DU-145,> 100 µM (inactive)
same,GI50,HCT-116,74 µM (inactive)
same,GI50,HCT-15,> 100 µM
same,GI50,HL-60,44.3 µM (inactive)
same,GI50,HOP-62,87.1 µM (inactive)
same,GI50,HOP-92,88.3 µM (inactive)
same,GI50,HT-29,> 100 µM (inactive)
same,GI50,IGROV-1,41.6 µM (inactive)
same,GI50,K562,61.5 µM (inactive)
same,GI50,KM12,73.1 µM (inactive)
same,GI50,LOX IMVI,50.2 µM (inactive)
same,GI50,M14,> 100 µM (inactive)
same,GI50,MCF7,34.6 µM (inactive)
same,GI50,MDA-MB-231,19.9 µM (inactive)
same,GI50,MDA-MB-435,67.1 µM (inactive)
same,GI50,MDA-N,> 100 µM (inactive)
same,GI50,MOLT-4,37.7 µM (inactive)
same,GI50,Malme-3M,> 100 µM (inactive)
same,GI50,NCI-H226,> 100 µM (inactive)
same,GI50,NCI-H23,29.9 µM (inactive)
same,GI50,NCI-H460,> 100 µM (inactive)
same,GI50,NCI-H522,48.3 µM (inactive)
same,GI50,NCI/ADR-RES,> 100 µM (inactive)
same,GI50,OVCAR-3,29.5 µM (inactive)
same,GI50,OVCAR-4,> 100 µM (inactive)
same,GI50,OVCAR-5,> 100 µM (inactive)
same,GI50,OVCAR-8,> 100 µM (inactive)
same,GI50,PC-3,47 µM (inactive)
same,GI50,RXF 393,63.5 µM (inactive)
same,GI50,SF-268,22.6 µM (inactive)
same,GI50,SF-295,> 100 µM (inactive)
same,GI50,SF-539,> 100 µM (inactive)
same,GI50,SK-MEL-28,> 100 µM (inactive)
same,GI50,SK-MEL-2,33.3 µM (inactive)
same,GI50,SK-MEL-5,48.9 µM (inactive)
same,GI50,SK-OV-3,95.7 µM (inactive)
same,GI50,SN12C,> 100 µM (inactive)
same,GI50,SNB-19,89.9 µM (inactive)
same,GI50,SNB-75,> 100 µM (inactive)
same,GI50,SR,34.3 µM (inactive)
same,GI50,SW-620,> 100 µM (inactive)
same,GI50,T47D,55.5 µM (inactive)
same,GI50,TK-10,> 100 µM (inactive)
same,GI50,U-251,46.6 µM (inactive)
same,GI50,UACC-257,> 100 µM (inactive)
same,GI50,UACC-62,27 µM (inactive)
same,GI50,UO-31,> 100 µM (inactive)
COc1cccc(/C(CC(O)(C(F)(F)F)C(F)(F)F)=N\N(C)C)c1,GI50,786-0,> 100 µM (inactive)
same,GI50,A498,> 100 µM (inactive)
same,GI50,A549,> 100 µM (inactive)
same,GI50,ACHN,> 100 µM (inactive)
same,GI50,CAKI-1,> 100 µM (inactive)
same,GI50,CCRF-CEM,> 100 µM (inactive)
same,GI50,COLO 205,> 100 µM (inactive)
same,GI50,DU-145,> 100 µM (inactive)
same,GI50,EKVX,> 100 µM (inactive)
same,GI50,HCC 2998,> 100 µM (inactive)
same,GI50,HCT-116,> 100 µM (inactive)
same,GI50,HCT-15,> 100 µM
same,GI50,HL-60,> 100 µM (inactive)
same,GI50,HOP-62,> 100 µM (inactive)
same,GI50,HOP-92,> 100 µM (inactive)
same,GI50,HT-29,> 100 µM (inactive)
same,GI50,Hs-578T,> 100 µM (inactive)
same,GI50,IGROV-1,> 100 µM (inactive)
same,GI50,K562,> 100 µM (inactive)
same,GI50,KM12,> 100 µM (inactive)
same,GI50,LOX IMVI,> 100 µM (inactive)
same,GI50,M14,> 100 µM (inactive)
same,GI50,MDA-MB-231,> 100 µM (inactive)
same,GI50,MDA-MB-435,> 100 µM (inactive)
same,GI50,MDA-N,> 100 µM (inactive)
same,GI50,MOLT-4,> 100 µM (inactive)
same,GI50,Malme-3M,> 100 µM (inactive)
same,GI50,NCI-H226,> 100 µM (inactive)
same,GI50,NCI-H23,> 100 µM (inactive)
same,GI50,NCI-H460,> 100 µM (inactive)
same,GI50,NCI-H522,> 100 µM (inactive)
same,GI50,NCI/ADR-RES,> 100 µM (inactive)
same,GI50,OVCAR-3,> 100 µM (inactive)
same,GI50,OVCAR-4,> 100 µM (inactive)
same,GI50,OVCAR-5,> 100 µM (inactive)
same,GI50,PC-3,> 100 µM (inactive)
same,GI50,RPMI-8226,> 100 µM (inactive)
same,GI50,RXF 393,> 100 µM (inactive)
same,GI50,SF-268,> 100 µM (inactive)
same,GI50,SF-295,> 100 µM (inactive)
same,GI50,SF-539,> 100 µM (inactive)
same,GI50,SK-MEL-28,> 100 µM (inactive)
same,GI50,SK-MEL-2,> 100 µM (inactive)
same,GI50,SK-MEL-5,> 100 µM (inactive)
same,GI50,SK-OV-3,> 100 µM (inactive)
same,GI50,SN12C,> 100 µM (inactive)
same,GI50,SNB-19,> 100 µM (inactive)
same,GI50,SNB-75,> 100 µM (inactive)
same,GI50,SR,> 100 µM (inactive)
same,GI50,SW-620,> 100 µM (inactive)
same,GI50,T47D,> 100 µM (inactive)
same,GI50,TK-10,> 100 µM (inactive)
same,GI50,U-251,> 100 µM (inactive)
same,GI50,UACC-62,> 100 µM (inactive)
same,GI50,UO-31,> 100 µM (inactive)
